The record followed here is patent publication US7897602B2, “Indolinone compounds as kinase inhibitors” (Development Center for Biotechnology, priority 2009, dated 2011).

In general, inhibition refers to the drop in the measured response relative to a control, in per cent. One may read the IC50 as the midpoint of a concentration-inhibition curve. Low readings indicate greater potency, high ones weaker potency.

Holding throughout (assay type): biochemical
Test [1] concerns the target T1, Aurora B kinase (Homo sapiens, UniProt Q96GD4).
T1 construct: purchased Cell signaling
The test can be described thus: Aurora B kinase assay ([γ-33P]ATP, CHOCKtide substrate). Conditions: for inhibition at 1 µM: 1.0 μM test compound. The gist of the method: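 Radiometric filter-binding format: 33P incorporation into CHOCKtide counted after acid stop and filtration. Reactions ran 30 min at 33 °C, Aurora A with 10 μM ATP, Aurora B with 40 μM ATP. IC50 taken as concentration giving half-maximal kinase inhibition.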

The target in test [2] is T2, VEGFR2 kinase (Homo sapiens, UniProt P35968).
T2 construct: recombinant N-terminal 6×His-tagged VEGFR2 kinase domain construct expressed by baculovirus; 6xHis (N); made in house
T2 sequence (P35968 834-1162 limits assumed): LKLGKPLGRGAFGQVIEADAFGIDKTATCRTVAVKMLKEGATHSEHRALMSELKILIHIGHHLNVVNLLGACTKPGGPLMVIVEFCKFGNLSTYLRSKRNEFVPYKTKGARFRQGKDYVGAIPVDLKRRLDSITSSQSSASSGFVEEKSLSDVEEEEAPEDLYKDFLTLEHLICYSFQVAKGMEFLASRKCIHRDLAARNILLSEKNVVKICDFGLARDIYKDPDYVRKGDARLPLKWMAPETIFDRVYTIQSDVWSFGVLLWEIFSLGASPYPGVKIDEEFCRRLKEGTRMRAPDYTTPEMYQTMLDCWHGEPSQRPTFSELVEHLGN
The test is described as follows: VEGFR2 kinase assay (33P incorporation into Poly(Glu-Tyr)). Conditions: 500 nM test compound; read-out: Inhibition at 500 nM (%) VEGFr-2. Put shortly:
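Recombinant baculovirus-expressed N-terminal His6-tagged VEGFR2 kinase domain (6.25 ng) phosphorylated poly(Glu-Tyr) 4:1 with 100 μM ATP plus [33P]-γ-ATP in MOPS pH 7.0, 30 °C, 30 min. Test compound was at 500 nM (4% DMSO). Filter-retained radioactivity relative to DMSO control gave % inhibition.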

Test [3] deals with T3, PDGFR-β kinase (Homo sapiens, UniProt P09619).
T3 construct: recombinant N-terminal 6×His-tagged PDGFR-β kinase domain construct expressed by baculovirus; 6xHis (N); made in house
T3 sequence (P09619 600-962 limits assumed): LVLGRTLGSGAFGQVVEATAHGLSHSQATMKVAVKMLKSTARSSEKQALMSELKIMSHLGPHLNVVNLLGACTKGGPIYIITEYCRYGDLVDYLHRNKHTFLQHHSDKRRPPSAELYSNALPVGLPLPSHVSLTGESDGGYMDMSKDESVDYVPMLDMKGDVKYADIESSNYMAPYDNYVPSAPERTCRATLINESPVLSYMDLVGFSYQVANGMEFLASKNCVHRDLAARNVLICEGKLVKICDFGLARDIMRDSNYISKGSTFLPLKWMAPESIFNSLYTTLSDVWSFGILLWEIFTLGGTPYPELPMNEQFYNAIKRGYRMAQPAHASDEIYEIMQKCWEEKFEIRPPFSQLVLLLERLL
The test is described as follows: PDGFR-β kinase assay (33P incorporation into Poly(Glu-Tyr)). Conditions: 500 nM test compound. Put shortly:
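His-tagged PDGFR-β kinase domain (55 ng) with Poly(Glu-Tyr) 4:1, 30 μM ATP plus [33P]-γ-ATP, pH 7.0 MnCl2 buffer, and 500 nM compound for 30 min at 30° C. Filter-bound radioactivity counted; inhibition computed relative to DMSO control.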

The target of test [4] is T4, c-Met kinase (Homo sapiens, UniProt P08581).
T4 construct: recombinant N-terminal 6×His-tagged c-Met kinase domain construct expressed from baculovirus; 6xHis (N); made in house
T4 sequence (P08581 1078-1345 limits assumed): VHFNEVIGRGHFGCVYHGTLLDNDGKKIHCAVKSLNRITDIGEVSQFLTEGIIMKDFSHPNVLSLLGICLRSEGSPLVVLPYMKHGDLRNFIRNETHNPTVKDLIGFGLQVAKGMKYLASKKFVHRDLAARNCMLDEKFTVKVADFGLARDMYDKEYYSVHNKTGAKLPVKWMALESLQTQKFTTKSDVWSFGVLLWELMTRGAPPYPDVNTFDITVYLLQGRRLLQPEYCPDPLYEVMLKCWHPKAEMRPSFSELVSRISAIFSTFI
The test is described as follows: c-Met kinase assay (33P incorporation into Poly(Glu-Tyr)). Conditions: 500 nM test compound. Put shortly:
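Single-concentration test (500 nM compound) at 30° C for 30 min, pH 7.0 MOPS buffer with 100 μM ATP and [33P]-γ-ATP. Enzyme was baculovirus-expressed 6×His c-Met kinase domain (5 ng), substrate Poly(Glu-Tyr) 4:1. Inhibition percentage derived from filter-bound counts relative to DMSO control.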

T1 sequence (Q96GD4 whole entry): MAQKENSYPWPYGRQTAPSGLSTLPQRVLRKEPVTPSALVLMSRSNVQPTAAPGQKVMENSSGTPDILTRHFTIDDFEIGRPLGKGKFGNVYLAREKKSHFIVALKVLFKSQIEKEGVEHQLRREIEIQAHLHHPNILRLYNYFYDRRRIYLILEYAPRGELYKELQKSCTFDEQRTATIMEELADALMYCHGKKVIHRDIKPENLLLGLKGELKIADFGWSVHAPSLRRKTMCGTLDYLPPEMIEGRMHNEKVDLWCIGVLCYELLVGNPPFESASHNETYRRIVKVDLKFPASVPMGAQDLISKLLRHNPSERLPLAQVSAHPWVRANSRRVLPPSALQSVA

As to `O=C(O)CCc1c(C=C2C(=S)Nc3ccccc32)[nH]c2c1C(=O)CCC2` [DCB-70084, 3-((3-carboxyethyl-4-oxo-4,5,6,7-tetrahydro-1H-indol-2-yl)methylene)indolin-2-thione], in test [1], the inhibition at 1 µM came out at 17.9%. The inhibition at 0.5 µM in test [2] was 13.4%; in test [3], 6%; in test [4], 11.5%.

As to `CCOC(=O)CCc1c(C=C2C(=S)Nc3cc(Br)ccc32)[nH]c2c1C(=O)CCC2` [DCB-70085, 6-bromo-3-((3-(3-ethoxy-3-oxopropyl)-4-oxo-4,5,6,7-tetrahydro-1H-indol-2-yl)methylene)indolin-2-thione], in test [1], the inhibition at 1 µM worked out at 10.7%. The inhibition at 0.5 µM is 25.4% in test [2], 16.5% in test [3] and 25.1% in test [4].

For the molecule `O=C(O)CCc1c(C=C2C(=S)Nc3cc(Br)ccc32)[nH]c2c1C(=O)CCC2` [DCB-70086, 6-bromo-3-((3-carboxyethyl-4-oxo-4,5,6,7-tetrahydro-1H-indol-2-yl)methylene)indolin-2-thione], the inhibition at 1 µM in test [1] worked out at 17.8%. Moreover, the inhibition at 0.5 µM in test [2] was found to be 21.9%; in test [3] it was 12.8%; in test [4], 21.6%.

The molecule `O=C(O)CCc1c(/C=C2\C(=O)Nc3ccc(S(=O)(=O)N4CCCC4)cc32)[nH]c2c1C(=O)CCC2` [DCB-70087, (Z)-5-(pyrrolidin-1-ylsulfonyl)-3-((3-carboxyethyl-4-oxo-4,5,6,7-tetrahydro-1H-indol-2-yl)methylene)indolin-2-one] yielded an IC50 in test [1] of 441 nM. In addition, the inhibition at 1 µM in test [1] worked out at 66.2%. Also, the results for the inhibition at 0.5 µM in test [2], in test [3] and in test [4] were 26.3%, 7.8% and 20.9%, respectively.

With `O=C(O)CCc1c(/C=C2\C(=O)Nc3ccc(S(=O)(=O)N4CCOCC4)cc32)[nH]c2c1C(=O)CCC2` [DCB-70088, (Z)-5-morpholinosulfonyl-3-((3-carboxyethyl-4-oxo-4,5,6,7-tetrahydro-1H-indol-2-yl)methylene)indolin-2-one], the midpoint of inhibition in test [1], the IC50, lay at 1870 nM. Besides, the inhibition at 1 µM in test [1] was determined as 48.8%. For the same molecule, the values for the inhibition at 0.5 µM in test [2], in test [3] and in test [4] were 17.2%, 1% and 25.3%, respectively.

Regarding `CCOC(=O)CCc1c(/C=C2\C(=O)Nc3ccc(NC(=O)Nc4ccc(C)cc4)cc32)[nH]c2c1C(=O)CCC2` [DCB-70091, (Z)-5-(3-p-tolylureido)-3-((3-(3-ethoxy-3-oxopropyl)-4-oxo-4,5,6,7-tetrahydro-1H-indol-2-yl)methylene)indolin-2-one], the inhibition at 1 µM in test [1] worked out at 10.8%. The inhibition at 0.5 µM in test [2] is 24.6%; in test [3], 13%; in test [4], -0.5%.

As to `CCOC(=O)CCc1c(/C=C2\C(=O)Nc3ccc(NC(=O)Nc4ccc(OC)cc4)cc32)[nH]c2c1C(=O)CCC2` [DCB-70092, (Z)-5-(3-(4-methoxyphenyl)ureido)-3-((3-(3-ethoxy-3-oxopropyl)-4-oxo-4,5,6,7-tetrahydro-1H-indol-2-yl)methylene)indolin-2-one], the inhibition at 1 µM in test [1] was 9.9%. For the same molecule, the inhibition at 0.5 µM in test [2] came out at 30.2%; in test [3], 14.1%; in test [4], 18.6%.

`Cc1ccc(NC(=O)Nc2ccc3c(c2)/C(=C/c2[nH]c4c(c2CCC(=O)O)C(=O)CCC4)C(=O)N3)cc1` [DCB-70093, (Z)-5-(3-p-tolylureido)-3-((3-carboxyethyl-4-oxo-4,5,6,7-tetrahydro-1H-indol-2-yl)methylene)indolin-2-one]: the inhibition at 1 µM in test [1] turned out to be 14.7%. In addition, the inhibition at 0.5 µM in test [2] was found to be 70.1%; in test [3], 40%; in test [4], 28.2%.

With `COc1ccc(NC(=O)Nc2ccc3c(c2)/C(=C/c2[nH]c4c(c2CCC(=O)O)C(=O)CCC4)C(=O)N3)cc1` [DCB-70094, (Z)-5-(3-(4-methoxyphenyl)ureido)-3-((3-carboxyethyl-4-oxo-4,5,6,7-tetrahydro-1H-indol-2-yl)methylene)indolin-2-one], the inhibition at 1 µM in test [1] was 15.5%. For the same molecule, the inhibition at 0.5 µM in test [2] came out at 79.8%; in test [3] it was 48.5%; in test [4] it was 18.9%.

As to `NS(=O)(=O)c1ccc2c(c1)/C(=C/c1[nH]c3c(c1CCC(=O)O)C(=O)CCC3)C(=O)N2` [DCB-70095, (Z)-5-sulfamoyl-3-((3-carboxyethyl-4-oxo-4,5,6,7-tetrahydro-1H-indol-2-yl)methylene)indolin-2-one], in test [1], the inhibition at 1 µM was 34.1%. The inhibition at 0.5 µM in test [2] worked out at 64.4%; in test [3], 36.2%; in test [4], 16%.

Take `CCOC(=O)CCc1c(/C=C2\C(=O)Nc3ccc(NC(=O)c4ccccc4)cc32)[nH]c2c1C(=O)CCC2` [DCB-70096, (Z)-5-benazmido-3-((3-(3-ethoxy-3-oxopropyl)-4-oxo-4,5,6,7-tetrahydro-1H-indol-2-yl)methylene)indolin-2-one]: the inhibition at 1 µM in test [1] was 15.1%. Also, the inhibition at 0.5 µM in test [2] amounted to 44.2%; in test [3] it was 14.9%; in test [4] it was 8.9%.

As to `O=C(O)CCc1c(/C=C2\C(=O)Nc3ccc(NC(=O)c4ccccc4)cc32)[nH]c2c1C(=O)CCC2` [DCB-70097, (Z)-5-benazmido-3-((3-carboxyethyl-4-oxo-4,5,6,7-tetrahydro-1H-indol-2-yl)methylene)indolin-2-one], the inhibition at 1 µM in test [1] stood at 14.2%. Also, the results for the inhibition at 0.5 µM in test [2], in test [3] and in test [4] were 62.5%, 21.5% and 14.4%, respectively.

Consider `CCOC(=O)CCc1c(/C=C2\C(=O)Nc3cc(-c4ccc(F)cc4)ccc32)[nH]c2c1C(=O)CCC2` [DCB-70098, (Z)-6-(4-fluorophenyl)-3-((3-(3-ethoxy-3-oxopropyl)-4-oxo-4,5,6,7-tetrahydro-1H-indol-2-yl)methylene)indolin-2-one], for which, in test [1], the inhibition at 1 µM came to 19.5%. In addition, the inhibition at 0.5 µM in test [2] was 20.4%; in test [3], 39.3%; in test [4], 27.2%.

As for `O=C(O)CCc1c(/C=C2\C(=O)Nc3cc(-c4ccc(F)cc4)ccc32)[nH]c2c1C(=O)CCC2` [DCB-70099, (Z)-6-(4-fluorophenyl)-3-((3-carboxyethyl-4-oxo-4,5,6,7-tetrahydro-1H-indol-2-yl)methylene)indolin-2-one], in test [1], the inhibition at 1 µM came out at 30%. Moreover, the inhibition at 0.5 µM in test [2] is 79%; in test [3] it was 74.6%; in test [4], 22.7%.

Take `CCOC(=O)CCc1c(/C=C2\C(=O)Nc3cc(-c4cc(F)cc(F)c4)ccc32)[nH]c2c1C(=O)CCC2` [DCB-70100, (Z)-6-(3,5-difluorophenyl)-3-((3-(3-ethoxy-3-oxopropyl)-4-oxo-4,5,6,7-tetrahydro-1H-indol-2-yl)methylene)indolin-2-one]: the inhibition at 1 µM in test [1] amounted to 13.2%. In addition, the inhibition at 0.5 µM in test [2] is 17.7%; in test [3], 20.3%; in test [4], 13.1%.

As for `O=C(O)CCc1c(/C=C2\C(=O)Nc3cc(-c4cc(F)cc(F)c4)ccc32)[nH]c2c1C(=O)CCC2` [DCB-70101, (Z)-6-(3,5-difluorophenyl)-3-((3-carboxyethyl-4-oxo-4,5,6,7-tetrahydro-1H-indol-2-yl)methylene)indolin-2-one], in test [1], the inhibition at 1 µM amounted to 17.7%. Also, the inhibition at 0.5 µM is 73.8% in test [2], 70.5% in test [3] and 26.7% in test [4].

Consider `CCOC(=O)CCc1c(/C=C2\C(=O)Nc3ccc(NS(=O)(=O)c4ccccc4)cc32)[nH]c2c1C(=O)CCC2` [DCB-70102, (Z)-5-phenylsulfonamido-3-((3-(3-ethoxy-3-oxopropyl)-4-oxo-4,5,6,7-tetrahydro-1H-indol-2-yl)methylene)indolin-2-one], for which, in test [1], the IC50 is 214 nM. Further, the inhibition at 1 µM in test [1] was determined as 74.3%. Moreover, the inhibition at 0.5 µM in test [2] is 68%; in test [3], 32.8%; in test [4], 33.7%.

Molecule `O=C(O)CCc1c(/C=C2\C(=O)Nc3ccc(NS(=O)(=O)c4ccccc4)cc32)[nH]c2c1C(=O)CCC2` [DCB-70103, (Z)-5-phenylsulfonamido-3-((3-carboxyethyl-4-oxo-4,5,6,7-tetrahydro-1H-indol-2-yl)methylene)indolin-2-one] displayed an IC50 in test [1] of 156 nM. Also, the inhibition at 1 µM in test [1] is 80.1%. For the same molecule, the inhibition at 0.5 µM in test [2] came to 88.3%; in test [3] it was 51%; in test [4], 37.9%.
